Measured values from patent publication US20070237734A1, “ANTI-WRINKLE COSMETIC COMPOSITION” (L'OREAL, priority 2006, published 2007).

Tested on: normal human fibroblasts
Experiment: Dermo-decontracting effect on dermal equivalent model (collagen matrix inoculated with fibroblasts), spontaneous contraction
Assay type: cell-based
Conditions: for % contraction: test compound 10 μM, dermal equivalent surface area at 0, 4, 8 and 24 hours, with respect to the control
Description: The principle of this test consists in studying the effect of the test product on a dermal equivalent model composed of a collagen matrix inoculated with normal human fibroblasts.
These conditions are intended to mimic in vitro the dermal contractile phenomena which occur during facial expressions. This is because, under these conditions, the cells spontaneously express tensile forces which induce retraction of the collagen gel. […] The measurement of this surface area makes it possible to evaluate the relaxing effects of the substances brought into contact beforehand with the dermal equivalent.
Two series of attached dermal equivalents comprising normal human fibroblasts are prepared: a control series without any treatment and a series treated with the test compound (10 μM). The experiment is repeated three times.
The dermal equivalents are prepared as described in Asselineau et al., Exp. Cell. Res., 1985, 159, 536-539; Models in Dermatology, 1987, vol. 3, pp. 1-7, in the following proportions:
The treated dermal equivalent differs from the control dermal equivalent in that 10 μM of the test compound are added thereto.
The collagen used is type I collagen (commercial solution). It is extracted from calf skin by acid hydrolysis and stored in an acidic medium at +4° C. It polymerizes naturally by reheating to 37° C. and by decreasing the degree of acidity. The collagen is dialysed beforehand against successive baths of water+acetic acid.
The protocol is as follows: the 1.76×MEM medium is introduced, in the presence of additives (1% glutamine, 1% non-essential amino acids, 1% sodium pyruvate, 1% fungizone and 1% penicillin/streptomycin), the foetal calf serum and the 0.1N NaOH solution, into a 50 ml centrifuge tube stored in crushed ice. The fibroblasts, isolated from human skin explants, are then added at the concentration of 1.5×10^5 cells per 1 ml of culture medium.
A volume/volume mixture of collagen in acetic acid at 1/1000 is then slowly added, against the wall of the tube, so as to observe the appearance of a whitish cloud.
The combined product is then carefully mixed and distributed in the wells of a 12-well culture plate (Costar type, reference 3512) in a proportion of 2 ml of mixture per well. The final cell concentration is […], with a final concentration of collagen of 1 mg/ml. The culture plate is then placed in an incubator at 37° C. with 5% CO2.
Once formed after polymerization of the collagen, the dermal equivalents are left adhered to the culture support for 3 days and then detached from the support so that the contraction can begin. These detached dermal equivalents are taken out of the incubator in order to take images for the purpose of measuring their surface area, this being for each point of the kinetics of contraction (0, 4, 8 and 24 hours). They are immediately placed back in the incubator between each measurement point.
The evaluation of the spontaneous contraction of the treated (with the test compound) and control (without test compound) dermal equivalents is carried out by measuring their surface area at the different times mentioned after the beginning of the spontaneous contraction.
For this, a digital image is acquired for each treated or untreated dermal equivalent by means of a camera (CCD camera-Iris Sony DXC-107P) and the surface area is subsequently calculated on each image by means of an image analysis system (Zeiss Axiovision 3.0). […]

Row | SMILES | % contraction [%] | reduce the contraction of the fibroblasts, on average over the duration of the experiment, with respect to the control (tested at 10 μM) [%]
1 | Nc1ncnc2c1ncn2[C@@H]1O[C@H](CO)[C@@H](O)[C@H]1O [Adenosine, reference compound] | −15 | 15
2 | CCOC[C@H]1O[C@@H](n2cnc3c(N)ncnc32)[C@@H]2OC(C)(C)O[C@@H]21 [Compound D, 2′,3′-isopropylidene-5′-ethyladenosine] | −21 | –
3 | CCCCCCCCOC[C@H]1O[C@@H](n2cnc3c(N)ncnc32)[C@@H]2OC(C)(C)O[C@@H]21 [Compound E, 2′,3′-isopropylidene-5′-octyladenosine] | −26 | –
4 | CC(=O)OC[C@H]1O[C@@H](n2cnc3c(N)ncnc32)[C@@H]2OC(C)(C)O[C@@H]21 [Compound G, 2′,3′-isopropylidene-5′-acetyladenosine] | −30 | –
